Measurements as given in patent US20250205233A1, “EPIDERMAL GROWTH FACTOR RECEPTOR (EGFR) TYROSINE KINASE INHIBITORS IN COMBINATION WITH AN AKT INHIBITOR FOR THE TREATMENT OF CANCER” (AstraZeneca AB, priority 2022, published 2025).
“Also recorded” adds a separate entry of the source. Read-outs that look alike come from different tables or passages of the source.

What was measured:
PC9-PIK3CAm cells = experiment: Clonogenic assay; type: cell-based, human; settings: osimertinib 160 nM, 8 days, crystal violet
Source text: Cells were stained with Crystal violet at the end of the treatment (8 days) and cell density (% surface) quantified by ImageJ.

[1] = tested on: P-EGFR, MAPK signalling, P-AKT and P-S6 in PC9-PIK3CAm cells; experiment: Intracellular changes by WB analysis; type: cell-based, human; settings: 4 h
HCC-827 PTEN^KO cells = type: cell-based, human
PC9 PTEN^KO cells = experiment: Clonogenic assay (long term); type: cell-based, human; settings: 160 nM osimertinib
[2] = tested on: p-S6 in PC9 PTEN^KO cells; experiment: Intracellular changes by WB analysis; type: cell-based, human; settings: treated for 3 weeks with osimertinib 160 nM
PC9 PTEN^KO xenograft = experiment: Xenograft model, tumour volume; type: in vivo, NOD/SCID mice
Method: (§1) e) PC9 PTEN-KO and HCC827 PTEN-KO cell lines were cultured in RPMI1640 supplemented with 10% FCS and cultured in a humidified incubator with 5% CO2 at 37° C. PC9 PTEN-KO and HCC827 PTEN-KO xenografts were established by subcutaneous implantation of 5×10^6, cells per animal, in 100 μL of cell suspension including 50% matrigel, into the flank of female NOD/SCID and nude mice respectively. All mice were older than 6 weeks at the time of cell implant. Tumour growth was monitored twice weekly by bilateral calliper measurements and tumour volume calculated using the formula TV (mm3)=[length (mm)×width (mm)2]×0.5, where the length and the width are the longest and the shortest diameters of the tumour.

[3] = tested on: PIK3CA H1047R and PIK3CA E453K-positive cells; experiment: Osimertinib selection of CRISPR knock-in cell pools, DNA sequencing; type: cell-based, human; settings: osimertinib (100 nM) for 3 weeks; NGS and SANGER sequencing
Source text: As the efficiency of knock-ins using this technology is usually low, only a small proportion of cells was expected to be genetically modified, thus mimicking the emergence of a co-occurring resistance mutation in a tumour.

PC9 PIK3CA^H1047R cells = settings: osimertinib alone
[4] = tested on: HCC-827 PTEN^KO xenograft; settings: mouse
Method: as §1

C=CC(=O)Nc1cc(Nc2nccc(-c3cn(C)c4ccccc34)n2)c(OC)cc1N(C)CCN(C)C [osimertinib, N-(2-{2-dimethylaminoethyl-methylamino}-4-methoxy-5-{[4-(1-methylindol-3-yl)pyrimidin-2-yl]amino}phenyl)prop-2-enamide]
clonogenic growth (cell density): resistance to osimertinib compared to parental PC9 (PC9-PIK3CAm cells): developed resistance | levels of P-AKT and P-S6 (western blot) ([1]; 160 nM osimertinib alone, PC9-PIK3CAm cells): refractory | P-EGFR levels and MAPK signalling (western blot) ([1]; 160 nM osimertinib, parental and PC9-PIK3CAm cells): downregulation of P-EGFR levels and MAPK signalling | clonogenic growth: resistance to osimertinib compared to parental cells (HCC-827 PTEN^KO cells): resulted in osimertinib resistance; also recorded: develop resistance | cell density (% surface) higher than parental HCC-827 (HCC-827 PTEN^KO cells; 160 nM osimertinib, after 3 weeks): 20 X | cell density higher than parental PC9 cells (PC9 PTEN^KO cells): 2 × | clonogenic growth: resistance to osimertinib compared to parental cells (PC9 PTEN^KO cells; 3 or 5 weeks): milder resistance phenotype; also recorded: develop resistance | p-S6 levels (western blot) [2]: persistent p-S6 levels | degree of resistance to Osimertinib in vivo (PC9 PTEN^KO xenograft): at best very modest | outgrowth of PIK3CA-mutant cells under osimertinib selection [3]: conferred resistance | osimertinib-induced apoptotic response (caspase 3/7 activation) compared to parental PC9 (PC9 PIK3CA^H1047R cells): diminished apoptotic response | osimertinib-induced apoptotic response (caspase 3/7 activation) compared to parental PC9 (PC9 PIK3CA^H1047R cells; listed as Osimertinib): Diminished apoptotic response | degree of resistance to Osimertinib in vivo [4]: at best very modest
